Activity calls are given as the source filed them.
Legend:
[1] = molecular target: T1, Rac GTPase-activating protein 1 (Homo sapiens, UniProt Q9H0H5); assay: MgcRacGAP GTPase-activating activity inhibitors, confirmation, biochemical, ADP Hunter fluorescence, primary and confirmatory (AID 624330); format: functional
T1 sequence (Q9H0H5 whole entry): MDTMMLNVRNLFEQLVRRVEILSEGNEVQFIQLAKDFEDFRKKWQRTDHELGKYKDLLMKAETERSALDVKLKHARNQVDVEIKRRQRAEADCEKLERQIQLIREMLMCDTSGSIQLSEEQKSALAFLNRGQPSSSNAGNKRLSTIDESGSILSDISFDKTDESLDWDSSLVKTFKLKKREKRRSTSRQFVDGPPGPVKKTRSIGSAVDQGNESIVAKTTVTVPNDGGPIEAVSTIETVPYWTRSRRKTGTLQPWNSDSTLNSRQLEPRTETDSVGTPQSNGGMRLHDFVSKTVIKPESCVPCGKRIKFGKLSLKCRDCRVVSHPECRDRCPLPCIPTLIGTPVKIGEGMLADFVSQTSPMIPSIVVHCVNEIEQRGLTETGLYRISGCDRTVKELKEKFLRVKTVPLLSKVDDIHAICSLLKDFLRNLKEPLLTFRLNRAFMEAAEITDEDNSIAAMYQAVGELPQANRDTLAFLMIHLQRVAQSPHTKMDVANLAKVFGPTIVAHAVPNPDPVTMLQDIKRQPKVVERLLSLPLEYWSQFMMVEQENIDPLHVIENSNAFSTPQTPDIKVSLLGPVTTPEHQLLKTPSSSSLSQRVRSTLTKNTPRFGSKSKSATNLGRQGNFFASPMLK

[2] = Shn3 3'UTR reporter inhibitors, dose response, cell-based, Clone20 osteoblasts, firefly luciferase, cherry-picked (AID 624132); format: functional;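 also: firefly luciferase luminescence from reporter carrying the Shn3 3'UTR in osteoblasts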
[3] = HepG2 cell cytotoxicity, dose response, cytotoxicity control for Shn3 inhibitor project, CellTiter-Glo, cherry-picked (AID 624134); format: functional, cell-based
[4] = control 3'UTR Renilla luciferase suppression, dose response, counter-screen for Shn3 inhibitor project, cell-based, Clone20-Shn3RL, cherry-picked (AID 624133); format: functional
[5] = growth suppression of PTEN-null colon cells, dose response, cell-based, HCT116 PTEN knockout (AID 1047); format: functional;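 also: HCT116 colon tumor cells with PTEN knocked out; cells exposed to compound for 60 hours before readout; potency for loss of cell viability measured by luminescence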
[6] = growth suppression of beta-catenin-knockout colon cells, dose response, cell-based, HCT116, human colon tumor (AID 1045); format: functional;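 also: HCT116 colon tumor cells with beta catenin knocked out; cells exposed to compound for 60 hours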
INS1 = assay: beta cell apoptosis inhibitors, cytokine rescue, dose response, luminescence, retest (AID 449756); format: functional, cell-based; details: Rattus norvegicus;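 also: cell death triggered by IL-1 beta plus TNF-alpha plus IFN-gamma mixture; protective hits raise ATP signal compared with cytokine alone wells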
[7] = P. falciparum Dd2 growth inhibitors, dose response, SYBR Green, cherry-picked samples (AID 1159567); format: functional, cell-based
Protein skinhead-1 = molecular target: T2, Protein skinhead-1 (Caenorhabditis elegans, UniProt P34707); format: functional
T2 sequence (P34707 whole entry): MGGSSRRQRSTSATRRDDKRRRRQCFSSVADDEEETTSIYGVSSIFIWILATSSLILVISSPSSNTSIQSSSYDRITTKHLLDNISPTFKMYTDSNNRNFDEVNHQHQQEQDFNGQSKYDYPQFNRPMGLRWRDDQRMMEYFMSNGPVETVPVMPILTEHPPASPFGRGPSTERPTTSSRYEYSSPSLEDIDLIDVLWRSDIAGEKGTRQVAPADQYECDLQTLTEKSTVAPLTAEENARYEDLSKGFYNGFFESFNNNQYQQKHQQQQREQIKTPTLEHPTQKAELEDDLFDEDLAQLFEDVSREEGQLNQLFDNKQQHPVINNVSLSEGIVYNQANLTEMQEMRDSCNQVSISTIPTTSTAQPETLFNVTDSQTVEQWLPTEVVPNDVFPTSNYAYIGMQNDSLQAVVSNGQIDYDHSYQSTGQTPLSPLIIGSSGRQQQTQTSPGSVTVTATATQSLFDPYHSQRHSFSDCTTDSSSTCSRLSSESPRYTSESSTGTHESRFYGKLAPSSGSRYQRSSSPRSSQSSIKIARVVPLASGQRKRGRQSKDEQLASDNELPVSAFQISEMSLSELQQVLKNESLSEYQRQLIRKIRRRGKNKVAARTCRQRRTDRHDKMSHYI

[8] = Luminescence Cell-Based Dose Retest to Confirm Inhibitors of Cancer Stem Cells. [Related pubchem assays (depositor defined):AID2717, AID2721]; format: functional; details: Homo sapiens
[9] = molecular target: T3, Polyadenylate-binding protein 1 (Homo sapiens, UniProt P11940); assay: PABP1 MLLE–PAM2 interaction inhibitors, dose response, miRNA deadenylation inhibitor project, biochemical, fluorescence polarization, Cy5-PAM2 peptide, secondary (AID 602260); format: functional; details: read-out: IC50_Mean
[10] = molecular target: T3, Polyadenylate-binding protein 1; assay: PABP1 MLLE–PAM2 binding inhibitor potency, dose response, biochemical, fluorescence polarization, FITC-PAM2 peptide (AID 602259); format: functional; details: read-out: IC50_Mean
[11] = NIH-3T3 fibroblast cytotoxicity, dose response, cytotoxicity control, cell-based, fluorescence, Alamar Blue, secondary assay (AID 2327); format: functional;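 also: NIH-3T3 mouse fibroblasts cultured with fluconazole at 8 µg/mL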
[12] = C. albicans growth with fluconazole, confirmation, fluorescence, retest (AID 2467); format: functional, cell-based
Cytochrome P450 3A4 = Cytochrome P450 3A4 (Homo sapiens, UniProt P08684);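 also: CYP3A4 tested as one member of a cytochrome P450 panel screen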
cells = format: functional
[13] = inhibitors of HIV Env-driven cell fusion, dose response, cherry-pick (AID 652057); format: functional, cell-based

T3 sequence (P11940 whole entry): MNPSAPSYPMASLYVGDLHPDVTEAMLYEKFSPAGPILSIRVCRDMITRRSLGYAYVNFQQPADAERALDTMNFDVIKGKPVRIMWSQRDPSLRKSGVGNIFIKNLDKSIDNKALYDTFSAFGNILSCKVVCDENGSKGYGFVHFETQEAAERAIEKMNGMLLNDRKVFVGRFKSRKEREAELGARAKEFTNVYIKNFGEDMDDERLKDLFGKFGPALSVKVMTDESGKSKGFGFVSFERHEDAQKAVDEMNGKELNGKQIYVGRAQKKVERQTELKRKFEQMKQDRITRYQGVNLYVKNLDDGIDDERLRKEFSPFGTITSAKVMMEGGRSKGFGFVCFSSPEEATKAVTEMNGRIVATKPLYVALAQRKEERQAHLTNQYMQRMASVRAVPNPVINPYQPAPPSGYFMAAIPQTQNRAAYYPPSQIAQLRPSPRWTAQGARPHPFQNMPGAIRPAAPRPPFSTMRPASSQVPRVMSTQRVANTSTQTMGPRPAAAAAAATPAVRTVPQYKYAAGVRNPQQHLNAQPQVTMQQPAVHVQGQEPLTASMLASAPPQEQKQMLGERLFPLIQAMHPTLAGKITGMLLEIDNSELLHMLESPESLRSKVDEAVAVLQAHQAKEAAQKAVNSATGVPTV
Chain of Cytochrome P450 3A4 (P08684 whole entry): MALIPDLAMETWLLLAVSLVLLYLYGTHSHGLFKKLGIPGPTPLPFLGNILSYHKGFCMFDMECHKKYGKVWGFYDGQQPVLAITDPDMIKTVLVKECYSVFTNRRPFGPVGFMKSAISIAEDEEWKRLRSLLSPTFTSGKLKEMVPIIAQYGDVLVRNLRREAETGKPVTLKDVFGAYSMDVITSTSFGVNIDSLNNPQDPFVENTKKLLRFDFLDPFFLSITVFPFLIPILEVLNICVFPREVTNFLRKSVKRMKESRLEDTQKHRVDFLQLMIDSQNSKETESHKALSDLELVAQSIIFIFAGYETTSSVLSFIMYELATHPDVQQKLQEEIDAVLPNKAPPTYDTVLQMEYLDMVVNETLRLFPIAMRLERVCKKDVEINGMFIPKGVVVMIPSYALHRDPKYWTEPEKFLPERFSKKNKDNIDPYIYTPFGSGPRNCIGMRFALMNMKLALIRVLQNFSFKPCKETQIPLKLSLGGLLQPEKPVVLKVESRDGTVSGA

For `CCOC(=O)CCNC(C)C1COc2ccccc2O1` (stereo not given), the IC50 [1] was 178 µM (active).
With `Cc1nn(Cc2ccc(Cl)cc2)c(C)c1NC(=O)c1cc(C(C)C)on1` the AC50 [2] was 6.2 µM (active), the AC50 [3] was 67 µM (active) and the AC50 [4] was 9.1 µM (active).
With `CCCOc1nc2c(c(=O)n(C)c(=O)n2C)n1Cc1cccc2ccccc12` the EC50 [5] was 49 µM (active), the EC50 [6] was 27.1 µM (active) and the AC50 (INS1) was 6.39 µM (active).
In the case of `CC(C)c1cn([C@H]2C[C@@H]3O[C@H](CO)CC[C@@H]3O[C@@H]2CCc2ccc(C#CC3(O)CCCC3)cc2)nn1`, the AC50 [7] is reported as 6.12 µM (active).
In the case of `COc1ccc(OCCN(C)C(=O)c2cccc(S(=O)(=O)N(C)c3ccccc3)c2)cc1`, the IC50 (Protein skinhead-1) is reported as > 100 µM (inactive).
In the case of `Cc1nn(-c2ccccc2)c(C)c1/C=N/NC(=O)CSc1nc2ccccc2c(=O)n1-c1ccc(Br)cc1`, the EC50 [5] is reported as 7.38 µM (active) and the EC50 [6] is reported as 7.27 µM (active).
For `Cc1ccc(Cl)cc1NC(=O)c1ccccc1OCC(=O)Nc1ccc(Cl)cc1`, the EC50 [5] was 8.82 µM (active), the EC50 [6] was 10.9 µM (active) and the AC50 [8] was 10.6 µM (inconclusive).
With `C=CCNC(=S)NS(=O)(=O)c1cccs1` the IC50 [9] was > 66 µM (inactive) and the IC50 [10] was > 66 µM (inactive).
For `O=C(N/N=C/c1cc([N+](=O)[O-])ccc1O)C1C2CCCCC21` (stereo not given), the EC50 [11] was > 150 µM (inactive) and the EC50 [12] was 2.35 µM (active).
In the case of `COC(=O)c1cc(-c2cccc(OC)c2)[nH]n1`, the IC50 (Protein skinhead-1) is reported as > 100 µM (inactive).
With `Cc1cccc(NC(=S)NC(=O)c2cccs2)n1` the IC50 [9] was > 66 µM (inactive), the IC50 [10] was > 66 µM (inactive) and the AC50 (Cytochrome P450 3A4) was 28.2 µM (inconclusive).
With `Fc1ccc(OCc2nc3ccccc3s2)cc1` the IC50 (Protein skinhead-1) was > 100 µM (inactive).
In the case of `O=C(CSc1nnc(CNc2ccc(F)cc2)n1Cc1ccco1)NC1CC1`, the IC50 (Protein skinhead-1) is reported as > 100 µM (inactive).
In the case of `O=[N+]([O-])c1cccc(C(=S)N2CCN(c3ccc(F)cc3)CC2)c1`, the IC50 [9] is reported as > 66 µM (inactive) and the IC50 [10] is reported as > 66 µM (inactive).
For `N#CCSc1nnc(CNc2ccc(F)cc2)o1`, the IC50 [9] was > 66 µM (inactive) and the IC50 [10] was > 66 µM (inactive).
In the case of `Cc1cc(O)c(/C=N/Nc2ccc(Cl)cc2)c(=O)o1`, the EC50 [11] is reported as 29.8 µM (active) and the EC50 [12] is reported as 0.273 µM (active).
In the case of `Fc1ccc(CSc2nnc(-c3ccco3)o2)cc1`, the IC50 (Protein skinhead-1) is reported as 30.1 µM (active).
For `O=C(O)CCCCCN1C(=O)/C(=C\c2ccncc2)SC1=S`, the EC50 [11] was 6.7 µM (inconclusive), the EC50 [12] was 1.45 µM (active) and the IC50 (cells) was 23.6 µM (active).
In the case of `O=C(Nc1ccc(Cl)cc1)C1CCCN(C2=NS(=O)(=O)c3ccccc32)C1` (stereo not given), the AC50 [13] is reported as 25.9 µM (active).
